The values that follow are results of earlier work, collected in publication PMC9627400 (ACS applied materials & interfaces, 2022).

This data set has as its target IL-6. The note with it: read-out: affinity; anti-IL-6 monoclonal antibody; cited from earlier work.

For “siltuximab: an FDA-approved anti-IL-6 monoclonal antibody”, the Kd is 11.7 nM.
